{"source": "ChEMBL document CHEMBL1150599", "about": "“Spiroidesin, a novel lipopeptide from the cyanobacterium Anabaena spiroides that inhibits cell growth of the cyanobacterium Microcystis aeruginosa” (J Nat Prod, 2002)", "key": {"[1]": {"assay": "Inhibition of alpha-chymotrypsin"}, "Microcystis aeruginosa": {"test_system": "Microcystis aeruginosa", "assay": "Growth inhibition of Microcystis aeruginosa NIES-88 after 5 days", "type": "functional, organism-based", "conditions": "NIES-88, 120 h"}}, "data": [{"smiles": "CCCCCC(=O)N[C@H](CCc1ccc(O)cc1)C(=O)N[C@@H](CCc1ccc(O)cc1)C(=O)N[C@H](Cc1ccccc1)C(=O)O", "note": "[SPIROIDESIN]", "values": [{"measurement": "IC50", "setting": "[1]", "result": 10, "unit": "µM"}, {"measurement": "IC50", "setting": "Microcystis aeruginosa", "result": 1.6, "unit": "µM"}]}]}
